{"source": "patent US20030153618A1", "about": "“Treatment and prevention of herpes simplex infections” (priority 1999, published 2003)", "key": {"[1]": {"system": "HSV, Type II", "assay": "Direct plaque-forming unit (PFU) count in BSC cells in defined media with set lysine (or derivative):arginine ratio", "assay_type": "cell-based", "conditions": "average of three tests", "procedure": "Absorbed virons were absorbed in susceptible cells in chemically defined media and the number of plaques made were counted. (See Davis, B. D., et al., Microbiology, 2nd Ed., Harper & Row, 1973, Part V, and sources cited therein for procedural details and discussion of the plaque method.)\nThe cell line chosen was green monkey kidney cells (BSC) that have been passed greater than 41 times. […] The virons were added to a confluent lawn of BSC cells and allowed to absorb at 25° C. for one hour. The unabsorbed virons and the media were removed by washing three times in PBS. […] The control media contained a lysine/arginine ratio of 1:1. The plaques were counted when easily readable. Flasks are done in triplicate."}, "[2]": {"system": "Herpes simplex II virus", "assay": "Back titration plaque assay: PFU counts at stated amounts of compound under test and arginine", "assay_type": "cell-based, Herpes simplex II virus (BSC cells)", "procedure": "The following experiments were conducted by back titration: Herpes simplex II virus from laboratory stocks was used. BSC cells were grown to confluence in Eagles medium with 15% fetal calf serum, 150 units per milliliter of penicillin and 100 micrograms per milliliter of streptomycin. The cultures were inoculated with 500 PFU of HS II. The virons were allowed to absorb for one hour at 25° C. The tissue cultures were then washed three times with sterile PBS to remove excess media and non-absorbed virons. The cells were then incubated at 37° C. until four-plus cytopathic effects were observed. The cells were then disrupted by slow freeze-thaw two times. The suspension was then clarified by slow speed centrifugation at 4° C. The supemanant suspension was then added to confluent BSC cultures. After one hour absorption, the cells were washed with PBS twice. The cells were overlaid in defined reagent (in triplicate) Eagles media in noble agar. The cells were then incubated at 37° C. until the plaques were easily counted, usually 40 t 72 hours. the cells were then washed two times with PBS and then fixed with 10% H2CO and a 2% sodium acetate. The cells were then stained in 0.1% crystal violet in ethanol. In the tables which follow the concentration of the compound to be tested, in micrograms per milliliter, is listed across the top of the table and the concentration of arginine in micrograms per milliliter is listed down the left side of the table, the count of plaque-forming units being shown in the matrix."}}}
{"smiles": "CC(N)CCCC(N)C(=O)O", "note": "(stereo not shown) [6-Methyl lysine]", "values": [{"measurement": "P.F.U. Count", "setting": "[1]; Compound Ratio to Arginine 10:1", "value": "<5"}, {"measurement": "P.F.U. Count", "setting": "[1]; Compound Ratio to Arginine 100:1", "value": "<5"}, {"measurement": "order of blocking the arginine molecule (rank of efficacy)", "setting": "[2]; among the tested derivatives", "value": "third most efficacious"}, {"measurement": "P.F.U. Count", "setting": "[2]; compound 10 μg/ml, arginine 0 μg/ml", "value": 0}, {"measurement": "P.F.U. Count", "setting": "[2]; compound 10 μg/ml, arginine 2.5 μg/ml", "value": 0}, {"measurement": "P.F.U. Count", "setting": "[2]; compound 10 μg/ml, arginine 5.0 μg/ml", "value": 0}, {"measurement": "P.F.U. Count", "setting": "[2]; compound 10 μg/ml, arginine 7.5 μg/ml", "value": 0}, {"measurement": "P.F.U. Count", "setting": "[2]; compound 10 μg/ml, arginine 10 μg/ml", "value": "4.0 × 10^3"}, {"measurement": "P.F.U. Count", "setting": "[2]; compound 10 μg/ml, arginine 15 μg/ml", "value": "1.8 × 10^3"}, {"measurement": "P.F.U. Count", "setting": "[2]; compound 10 μg/ml, arginine 20 μg/ml", "value": "2.8 × 10^6"}, {"measurement": "P.F.U. Count", "setting": "[2]; compound 10 μg/ml, arginine 25 μg/ml", "value": "2.7 × 10^5"}, {"measurement": "P.F.U. Count", "setting": "[2]; compound 25 μg/ml, arginine 0 μg/ml", "value": 0}, {"measurement": "P.F.U. Count", "setting": "[2]; compound 25 μg/ml, arginine 2.5 μg/ml", "value": 0}, {"measurement": "P.F.U. Count", "setting": "[2]; compound 25 μg/ml, arginine 5.0 μg/ml", "value": 0}, {"measurement": "P.F.U. Count", "setting": "[2]; compound 25 μg/ml, arginine 7.5 μg/ml", "value": 0}, {"measurement": "P.F.U. Count", "setting": "[2]; compound 25 μg/ml, arginine 10 μg/ml", "value": "2.1 × 10^3"}, {"measurement": "P.F.U. Count", "setting": "[2]; compound 25 μg/ml, arginine 15 μg/ml", "value": "2.1 × 10^3"}, {"measurement": "P.F.U. Count", "setting": "[2]; compound 25 μg/ml, arginine 20 μg/ml", "value": "2.4 × 10^5"}, {"measurement": "P.F.U. Count", "setting": "[2]; compound 25 μg/ml, arginine 25 μg/ml", "value": "2.9 × 10^5"}, {"measurement": "P.F.U. Count", "setting": "[2]; compound 50 μg/ml, arginine 0 μg/ml", "value": 0}, {"measurement": "P.F.U. Count", "setting": "[2]; compound 50 μg/ml, arginine 2.5 μg/ml", "value": 0}, {"measurement": "P.F.U. Count", "setting": "[2]; compound 50 μg/ml, arginine 5.0 μg/ml", "value": 0}, {"measurement": "P.F.U. Count", "setting": "[2]; compound 50 μg/ml, arginine 7.5 μg/ml", "value": 0}, {"measurement": "P.F.U. Count", "setting": "[2]; compound 50 μg/ml, arginine 10 μg/ml", "value": 0}, {"measurement": "P.F.U. Count", "setting": "[2]; compound 50 μg/ml, arginine 15 μg/ml", "value": "1.7 × 10^3"}, {"measurement": "P.F.U. Count", "setting": "[2]; compound 50 μg/ml, arginine 20 μg/ml", "value": "1.7 × 10^5"}, {"measurement": "P.F.U. Count", "setting": "[2]; compound 50 μg/ml, arginine 25 μg/ml", "value": "2.0 × 10^5"}, {"measurement": "P.F.U. Count", "setting": "[2]; compound 100 μg/ml, arginine 0 μg/ml", "value": 0}, {"measurement": "P.F.U. Count", "setting": "[2]; compound 100 μg/ml, arginine 2.5 μg/ml", "value": 0}, {"measurement": "P.F.U. Count", "setting": "[2]; compound 100 μg/ml, arginine 5.0 μg/ml", "value": 0}, {"measurement": "P.F.U. Count", "setting": "[2]; compound 100 μg/ml, arginine 7.5 μg/ml", "value": 0}, {"measurement": "P.F.U. Count", "setting": "[2]; compound 100 μg/ml, arginine 10 μg/ml", "value": 0}, {"measurement": "P.F.U. Count", "setting": "[2]; compound 100 μg/ml, arginine 15 μg/ml", "value": 0}, {"measurement": "P.F.U. Count", "setting": "[2]; compound 100 μg/ml, arginine 20 μg/ml", "value": "6.4 × 10^4"}, {"measurement": "P.F.U. Count", "setting": "[2]; compound 100 μg/ml, arginine 25 μg/ml", "value": "5.8 × 10^4"}, {"measurement": "P.F.U. Count", "setting": "[2]; compound 200 μg/ml, arginine 0 μg/ml", "value": 0}, {"measurement": "P.F.U. Count", "setting": "[2]; compound 200 μg/ml, arginine 2.5 μg/ml", "value": 0}, {"measurement": "P.F.U. Count", "setting": "[2]; compound 200 μg/ml, arginine 5.0 μg/ml", "value": 0}, {"measurement": "P.F.U. Count", "setting": "[2]; compound 200 μg/ml, arginine 7.5 μg/ml", "value": 0}, {"measurement": "P.F.U. Count", "setting": "[2]; compound 200 μg/ml, arginine 10 μg/ml", "value": 0}, {"measurement": "P.F.U. Count", "setting": "[2]; compound 200 μg/ml, arginine 15 μg/ml", "value": 0}, {"measurement": "P.F.U. Count", "setting": "[2]; compound 200 μg/ml, arginine 20 μg/ml", "value": "6.9 × 10^4"}, {"measurement": "P.F.U. Count", "setting": "[2]; compound 200 μg/ml, arginine 25 μg/ml", "value": "4.7 × 10^4"}, {"measurement": "P.F.U. Count", "setting": "[2]; compound 300 μg/ml, arginine 0 μg/ml", "value": 0}, {"measurement": "P.F.U. Count", "setting": "[2]; compound 300 μg/ml, arginine 2.5 μg/ml", "value": 0}, {"measurement": "P.F.U. Count", "setting": "[2]; compound 300 μg/ml, arginine 5.0 μg/ml", "value": 0}, {"measurement": "P.F.U. Count", "setting": "[2]; compound 300 μg/ml, arginine 7.5 μg/ml", "value": 0}, {"measurement": "P.F.U. Count", "setting": "[2]; compound 300 μg/ml, arginine 10 μg/ml", "value": 0}, {"measurement": "P.F.U. Count", "setting": "[2]; compound 300 μg/ml, arginine 15 μg/ml", "value": 0}, {"measurement": "P.F.U. Count", "setting": "[2]; compound 300 μg/ml, arginine 20 μg/ml", "value": "5.0 × 10^3"}, {"measurement": "P.F.U. Count", "setting": "[2]; compound 300 μg/ml, arginine 25 μg/ml", "value": "4.0 × 10^4"}, {"measurement": "P.F.U. Count", "setting": "[2]; compound 400 μg/ml, arginine 0 μg/ml", "value": 0}, {"measurement": "P.F.U. Count", "setting": "[2]; compound 400 μg/ml, arginine 2.5 μg/ml", "value": 0}, {"measurement": "P.F.U. Count", "setting": "[2]; compound 400 μg/ml, arginine 5.0 μg/ml", "value": 0}, {"measurement": "P.F.U. Count", "setting": "[2]; compound 400 μg/ml, arginine 7.5 μg/ml", "value": 0}, {"measurement": "P.F.U. Count", "setting": "[2]; compound 400 μg/ml, arginine 10 μg/ml", "value": 0}, {"measurement": "P.F.U. Count", "setting": "[2]; compound 400 μg/ml, arginine 15 μg/ml", "value": 0}, {"measurement": "P.F.U. Count", "setting": "[2]; compound 400 μg/ml, arginine 20 μg/ml", "value": 690}, {"measurement": "P.F.U. Count", "setting": "[2]; compound 400 μg/ml, arginine 25 μg/ml", "value": "3.9 × 10^3"}, {"measurement": "P.F.U. Count", "setting": "[2]; compound 500 μg/ml, arginine 0 μg/ml", "value": 0}, {"measurement": "P.F.U. Count", "setting": "[2]; compound 500 μg/ml, arginine 2.5 μg/ml", "value": 0}, {"measurement": "P.F.U. Count", "setting": "[2]; compound 500 μg/ml, arginine 5.0 μg/ml", "value": 0}, {"measurement": "P.F.U. Count", "setting": "[2]; compound 500 μg/ml, arginine 7.5 μg/ml", "value": 0}, {"measurement": "P.F.U. Count", "setting": "[2]; compound 500 μg/ml, arginine 10 μg/ml", "value": 0}, {"measurement": "P.F.U. Count", "setting": "[2]; compound 500 μg/ml, arginine 15 μg/ml", "value": 0}, {"measurement": "P.F.U. Count", "setting": "[2]; compound 500 μg/ml, arginine 20 μg/ml", "value": 56}, {"measurement": "P.F.U. Count", "setting": "[2]; compound 500 μg/ml, arginine 25 μg/ml", "value": "3.71 × 10^3"}]}
